This is an account of results in ChEMBL document CHEMBL3286117, “Synthesis and pharmacological evaluation of analogues of benzyl quinolone carboxylic acid (BQCA) designed to bind irreversibly to an allosteric site of the M ₁ muscarinic acetylcholine receptor” (J Med Chem, 2014).

Activity calls are given as the source filed them. The calls are words filed in the database; no cut-off is given here.

Assay [1] concerns the target T1, Muscarinic acetylcholine receptor M1 (Homo sapiens) (UniProt P11229).
T1 sequence (whole entry): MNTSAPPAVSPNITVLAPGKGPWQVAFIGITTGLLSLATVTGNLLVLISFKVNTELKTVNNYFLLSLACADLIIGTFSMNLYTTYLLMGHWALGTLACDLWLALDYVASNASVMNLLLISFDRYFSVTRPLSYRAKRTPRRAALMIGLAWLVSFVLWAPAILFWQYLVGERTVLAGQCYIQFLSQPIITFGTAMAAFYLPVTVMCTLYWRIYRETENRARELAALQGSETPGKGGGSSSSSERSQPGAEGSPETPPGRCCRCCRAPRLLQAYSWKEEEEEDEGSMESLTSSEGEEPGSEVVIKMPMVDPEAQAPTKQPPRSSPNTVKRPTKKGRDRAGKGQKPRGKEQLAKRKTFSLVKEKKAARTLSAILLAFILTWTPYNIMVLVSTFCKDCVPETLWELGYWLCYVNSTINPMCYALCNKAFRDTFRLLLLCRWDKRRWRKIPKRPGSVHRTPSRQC
In words: Displacement of [3H]NMS from human M1 mAChR expressed in FlpIn-CHO cells after 4 hrs by microplate counting analysis. The format is cell-based.

Assay [2] deals with T2, Muscarinic acetylcholine receptor M1 (Homo sapiens, UniProt P11229).
T2 sequence (P11229 whole entry): T1 sequence (whole entry)
Nature of the assay: Activation of human M1 mAChR expressed in FlpIn-CHO cells assessed as […] ERK1/2 phosphorylation incubated for 5 mins by Alphascreen assay. The class given is cell-based.

Assay [3] addresses T1, Muscarinic acetylcholine receptor M1 (Homo sapiens). In words: Irreversible binding to human M1 mAChR expressed in FlpIn-CHO cell membrane assessed as receptor alkylation incubated for 30 mins prior to [3H]NMS addition measured after 4 hrs by radioligand displacement analysis (reference value: 100%). The format is cell membranes.
Assay [4] shares this target. In words: Irreversible binding to human M1 mAChR expressed in FlpIn-CHO cells assessed as receptor alkylation incubated for 30 mins prior to [3H]NMS addition measured 4 hrs after compound washout by whole cell radioligand displacement analysis relative to vehicle-treated control. The class given is cell-based.

As for `O=C(O)c1cn(Cc2ccc(S(=O)(=O)F)cc2)c2ccccc2c1=O`, the pKb in assay [1] came out at 3.97. Besides, the EC50 in assay [2] was 316 nM.
`O=C(CBr)Nc1ccc(Cn2cc(C(=O)O)c(=O)c3ccccc32)cc1` registered a pKb in assay [1] of 4.72. The concentration giving a half-maximal response (EC50) in assay [2] was 1580 nM.
For the compound `COc1ccc(Cn2cc(C(=O)O)c(=O)c3ccccc32)cc1`, the Bmax in assay [3] was 90.8%. Further, the result in assay [4] was inactive.
Take `O=C(O)c1cn(Cc2ccc(N=C=S)cc2)c2ccccc2c1=O`: the pKb in assay [1] was determined as 5.22. In addition, the EC50 in assay [2] is 389 nM. In assay [3], the Bmax was determined as 50%. For the same compound, the result in assay [4] was inactive.
In assay [1], `O=C(O)c1cn(Cc2ccc(N3C(=O)C=CC3=O)cc2)c2ccccc2c1=O` showed a pKb of 5.09. Moreover, the EC50 in assay [2] is 417 nM.
